Source: patent publication US20250179103A1, “6-OXODECAHYDROPYRROLO[1,2-A][1,5]DIAZOCINE AND 6-OXODECAHYDRO-4H-PYRROLO[2,1-D][1,5]THIAZOCINE DERIVATIVES AS STAT3 AND STAT6 MODULATORS FOR THE TREATMENT OF CANCER AND INFLAMMATORY CONDITIONS” (Recludix Pharma, Inc., priority 2022, published 2025)

Assays:
[1] = molecular target: T1, Recombinant STAT3 protein (STAT3(G127-I722)) (Homo sapiens, UniProt P40763); assay: STAT3 Fluorescence Polarization (FP) Assay; type: binding; conditions: STAT3(G127-I722) 25 nM, probe 5-FAM-GpYLPQTV-NH2 2 nM, 45-minute incubation
T1 construct: Recombinant STAT3 protein (STAT3(G127-I722))
T1 sequence (P40763 127-722): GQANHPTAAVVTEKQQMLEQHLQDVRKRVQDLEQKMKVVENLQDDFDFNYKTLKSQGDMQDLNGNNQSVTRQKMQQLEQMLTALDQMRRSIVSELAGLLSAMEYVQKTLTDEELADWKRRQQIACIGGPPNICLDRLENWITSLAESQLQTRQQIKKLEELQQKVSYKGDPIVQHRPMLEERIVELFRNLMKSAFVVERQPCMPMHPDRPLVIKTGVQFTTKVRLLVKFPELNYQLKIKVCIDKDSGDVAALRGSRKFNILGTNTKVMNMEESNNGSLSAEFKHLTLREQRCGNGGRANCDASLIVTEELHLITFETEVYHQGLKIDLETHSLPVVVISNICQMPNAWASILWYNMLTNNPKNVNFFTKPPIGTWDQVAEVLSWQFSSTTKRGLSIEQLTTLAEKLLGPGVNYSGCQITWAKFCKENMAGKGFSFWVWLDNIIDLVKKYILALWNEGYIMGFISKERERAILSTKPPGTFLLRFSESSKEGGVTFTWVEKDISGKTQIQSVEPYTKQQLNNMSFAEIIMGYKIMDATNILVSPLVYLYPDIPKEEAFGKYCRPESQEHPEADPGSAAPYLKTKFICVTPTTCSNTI
Method in brief: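 Fluorescence polarization after a 45-min room-temperature incubation measured compound displacement of a 2 nM fluorescein-labelled phosphotyrosine peptide (5-FAM-GpYLPQTV-NH2) from 25 nM recombinant STAT3(G127-I722). Buffer was 10 mM HEPES pH 7.4 with 1% DMSO final. IC50s were fitted by nonlinear regression of mP against log concentration.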

[2] = molecular target: T2, Recombinant STAT6 protein (STAT6(W123-T658)) (Homo sapiens, UniProt P42226); assay: STAT6 Fluorescence Polarization (FP) Assay; type: binding; conditions: STAT6(W123-T658) 250 nM, probe 5-FAM-ApYKPFQDLI-NH2 2 nM, 45-minute incubation
T2 construct: Recombinant STAT6 protein (STAT6(W123-T658))
T2 sequence (P42226 123-658): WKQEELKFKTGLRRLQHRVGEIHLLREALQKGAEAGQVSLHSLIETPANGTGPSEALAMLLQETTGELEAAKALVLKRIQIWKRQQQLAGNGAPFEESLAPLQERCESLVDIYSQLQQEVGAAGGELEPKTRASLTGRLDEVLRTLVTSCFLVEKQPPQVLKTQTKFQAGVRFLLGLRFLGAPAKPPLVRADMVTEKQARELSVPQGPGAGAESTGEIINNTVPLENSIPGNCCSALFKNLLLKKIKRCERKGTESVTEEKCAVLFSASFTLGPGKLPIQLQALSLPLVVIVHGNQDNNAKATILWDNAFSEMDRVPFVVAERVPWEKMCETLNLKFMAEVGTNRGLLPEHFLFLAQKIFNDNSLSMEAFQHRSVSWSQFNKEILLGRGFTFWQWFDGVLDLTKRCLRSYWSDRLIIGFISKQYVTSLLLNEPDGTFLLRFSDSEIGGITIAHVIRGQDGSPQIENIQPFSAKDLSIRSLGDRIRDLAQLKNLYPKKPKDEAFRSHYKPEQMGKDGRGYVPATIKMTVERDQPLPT
Method in brief: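 Displacement of a fluorescent phosphotyrosine peptide (5-FAM-ApYKPFQDLI-NH2, 2 nM) from STAT6(W123-T658) (250 nM), 1% DMSO, pH 7.4 HEPES buffer. After 45 min at room temperature, polarization (mP) was plotted versus log compound concentration and fitted by nonlinear regression to give IC50.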

Row | SMILES | IC50 [1] | IC50 [2]
1 | CC(=O)N1CC[C@H]2CC[C@@H](C(=O)N(C)c3ccccc3)N2C(=O)[C@@H](NC(=O)c2ccc3ccc(C(F)(F)P(=O)(O)O)cc3c2)C1 [Compound 111, ((7-(((5S,8S,10aR)-3-acetyl-8-(methyl(phenyl)carbamoyl)-6-oxodecahydropyrrolo[1,2-a][1,5]diazocin-5-yl)carbamoyl)naphthalen-2-yl)difluoromethyl)phosphonic acid] | > 10 µM | 0.3 to 3 µM
2 | CC(=O)N1CC[C@H]2CC[C@@H](C(=O)N(C)c3ccccc3)N2C(=O)[C@@H](NC(=O)c2ccc3cc(C(F)(F)P(=O)(O)O)ccc3c2)C1 [Compound 112, ((6-(((5S,8S,10aR)-3-acetyl-8-(methyl(phenyl)carbamoyl)-6-oxodecahydropyrrolo[1,2-a][1,5]diazocin-5-yl)carbamoyl)naphthalen-2-yl)difluoromethyl)phosphonic acid] | > 10 µM | > 30 µM
3 | CC(=O)N1CC[C@H]2CC[C@@H](C(=O)N(C)c3ccccc3)N2C(=O)[C@@H](NC(=O)c2ccc3cc(P(=O)(O)O)ccc3c2)C1 [Compound 113, (6-(((5S,8S,10aR)-3-acetyl-8-(methyl(phenyl)carbamoyl)-6-oxodecahydropyrrolo[1,2-a][1,5]diazocin-5-yl)carbamoyl)naphthalen-2-yl)phosphonic acid] | > 10 µM | > 30 µM
4 | CC(=O)N1CC[C@H]2CC[C@@H](C(=O)N(C)c3ccccc3)N2C(=O)[C@@H](NC(=O)c2ccc3ccc(P(=O)(O)O)cc3c2)C1 [Compound 114, (7-(((5S,8S,10aR)-3-acetyl-8-(methyl(phenyl)carbamoyl)-6-oxodecahydropyrrolo[1,2-a][1,5]diazocin-5-yl)carbamoyl)naphthalen-2-yl)phosphonic acid] | > 10 µM | > 30 µM
5 | CC(=O)N1CC[C@H]2CC[C@@H](C(=O)N(C)c3ccc4nnccc4c3)N2C(=O)[C@@H](NC(=O)c2ccc3cnc(C(F)(F)P(=O)(O)O)cc3c2)C1 [Compound 119, ((6-(((5S,8S,10aR)-3-acetyl-8-(cinnolin-6-yl(methyl)carbamoyl)-6-oxodecahydropyrrolo[1,2-a][1,5]diazocin-5-yl)carbamoyl)isoquinolin-3-yl)difluoromethyl)phosphonic acid] | > 10 µM | 0.3 to 3 µM
6 | CC(=O)N1CC[C@H]2CC[C@@H](C(=O)N(C)c3ccc4nnccc4c3)N2C(=O)[C@@H](NC(=O)c2ccc3ccc(C(F)(F)P(=O)(O)O)nc3c2)C1 [Compound 120, ((7-(((5S,8S,10aR)-3-acetyl-8-(cinnolin-6-yl(methyl)carbamoyl)-6-oxodecahydropyrrolo[1,2-a][1,5]diazocin-5-yl)carbamoyl)quinolin-2-yl)difluoromethyl)phosphonic acid] | > 10 µM | 3 to 30 µM
7 | CC(=O)N1CC[C@H]2CC[C@@H](C(=O)Nc3ccc(-c4ccccc4)cc3)N2C(=O)[C@@H](NC(=O)/C=C/c2ccc(C(F)(F)P(=O)(O)O)cc2)C1 [Compound 121, ((4-((E)-3-(((5S,8S,10aR)-8-([1,1′-biphenyl]-4-ylcarbamoyl)-3-acetyl-6-oxodecahydropyrrolo[1,2-a][1,5]diazocin-5-yl)amino)-3-oxoprop-1-en-1-yl)phenyl)difluoromethyl)phosphonic acid] | > 10 µM | 3 to 30 µM
8 | CC(=O)N1CC[C@H]2CC[C@@H](C(=O)N3CC(c4cccnc4)C3)N2C(=O)[C@@H](NC(=O)c2cc3cc(C(F)(F)P(=O)(O)O)ccc3s2)C1 [Compound 122, ((2-(((5S,8S,10aR)-3-acetyl-6-oxo-8-(3-(pyridin-3-yl)azetidine-1-carbonyl)decahydropyrrolo[1,2-a][1,5]diazocin-5-yl)carbamoyl)benzo[b]thiophen-5-yl)difluoromethyl)phosphonic acid] | ≤ 0.1 µM | 0.3 to 3 µM
9 | CC(=O)N1CC[C@H]2CC[C@@H](C(=O)N3C[C@H](c4ccccc4)[C@@H](C#N)C3)N2C(=O)[C@@H](NC(=O)c2cc3cc(C(F)(F)P(=O)(O)O)ccc3s2)C1 [Compound 124, ((2-(((5S,8S,10aR)-3-acetyl-8-((3R,4S)-3-cyano-4-phenylpyrrolidine-1-carbonyl)-6-oxodecahydropyrrolo[1,2-a][1,5]diazocin-5-yl)carbamoyl)benzo[b]thiophen-5-yl)difluoromethyl)phosphonic acid] | 1 to 10 µM | ≤ 0.3 µM
10 | CC(=O)N1CC[C@H]2CC[C@@H](C(=O)N(C)c3ccc(OCCN(C)C)cc3)N2C(=O)[C@@H](NC(=O)c2cc3cc(C(F)(F)P(=O)(O)O)ccc3s2)C1 [Compound 125, ((2-(((5S,8S,10aR)-3-acetyl-8-((4-(2-(dimethylamino)ethoxy)phenyl)(methyl)carbamoyl)-6-oxodecahydropyrrolo[1,2-a][1,5]diazocin-5-yl)carbamoyl)benzo[b]thiophen-5-yl)difluoromethyl)phosphonic acid] | 1 to 10 µM | 0.3 to 3 µM
11 | CC(=O)N1CC[C@H]2CC[C@@H](C(=O)N3CCC[C@H]3Cc3cccnc3)N2C(=O)[C@@H](NC(=O)c2cc3cc(C(F)(F)P(=O)(O)O)ccc3s2)C1 [Compound 126, ((2-(((5S,8S,10aR)-3-acetyl-6-oxo-8-((S)-2-(pyridin-3-ylmethyl)pyrrolidine-1-carbonyl)decahydropyrrolo[1,2-a][1,5]diazocin-5-yl)carbamoyl)benzo[b]thiophen-5-yl)difluoromethyl)phosphonic acid] | 1 to 10 µM | 0.3 to 3 µM

The remaining lines, values ahead:

Row | IC50 [1] | IC50 [2] | SMILES
12 | > 10 µM | 0.3 to 3 µM | CC(=O)N1CC[C@H]2CC[C@@H](C(=O)N(C)c3ccccc3)N2C(=O)[C@@H](NC(=O)c2nc3cc(C(F)(F)P(=O)(O)O)ccc3s2)C1 [Compound 115, ((2-(((5S,8S,10aR)-3-acetyl-8-(methyl(phenyl)carbamoyl)-6-oxodecahydropyrrolo[1,2-a][1,5]diazocin-5-yl)carbamoyl)benzo[d]thiazol-5-yl)difluoromethyl)phosphonic acid]
13 | 0.1 to 1 µM | 0.3 to 3 µM | CC(=O)N1CC[C@H]2CC[C@@H](C(=O)N3CCC(C(N)=O)c4cc(-c5ccccc5)ccc43)N2C(=O)[C@@H](NC(=O)c2cc3cc(C(F)(F)P(=O)(O)O)ccc3s2)C1 (stereo partly drawn) [Compound 116, ((2-(((5S,8S,10aR)-3-acetyl-8-(4-carbamoyl-6-phenyl-1,2,3,4-tetrahydroquinoline-1-carbonyl)-6-oxodecahydropyrrolo[1,2-a][1,5]diazocin-5-yl)carbamoyl)benzo[b]thiophen-5-yl)difluoromethyl)phosphonic acid]
14 | > 10 µM | 0.3 to 3 µM | CC(=O)N1CC[C@H]2CC[C@@H](C(=O)N(C)c3ccc(C(C)(C)C)cc3)N2C(=O)[C@@H](NC(=O)c2ccc3ccc(C(F)(F)P(=O)(O)O)cc3c2)C1 [Compound 117, ((7-(((5S,8S,10aR)-3-acetyl-8-((4-(tert-butyl)phenyl)(methyl)carbamoyl)-6-oxodecahydropyrrolo[1,2-a][1,5]diazocin-5-yl)carbamoyl)naphthalen-2-yl)difluoromethyl)phosphonic acid]
15 | > 10 µM | 0.3 to 3 µM | CC(=O)N1CC[C@H]2CC[C@@H](C(=O)N(C)c3ccc4nnccc4c3)N2C(=O)[C@@H](NC(=O)c2ccc3ccc(C(F)(F)P(=O)(O)O)cc3n2)C1 [Compound 118, ((2-(((5S,8S,10aR)-3-acetyl-8-(cinnolin-6-yl(methyl)carbamoyl)-6-oxodecahydropyrrolo[1,2-a][1,5]diazocin-5-yl)carbamoyl)quinolin-7-yl)difluoromethyl)phosphonic acid]
16 | 1 to 10 µM | 3 to 30 µM | CC(=O)N1CC[C@H]2CC[C@@H](C(=O)N(C)c3ccc(C#N)cc3)N2C(=O)[C@@H](NC(=O)c2cc3cc(C(F)(F)P(=O)(O)O)ccc3s2)C1 [Compound 123, ((2-(((5S,8S,10aR)-3-acetyl-8-((4-cyanophenyl)(methyl)carbamoyl)-6-oxodecahydropyrrolo[1,2-a][1,5]diazocin-5-yl)carbamoyl)benzo[b]thiophen-5-yl)difluoromethyl)phosphonic acid]
17 | 0.1 to 1 µM | 0.3 to 3 µM | CC(=O)N1CC[C@H]2CC[C@@H](C(=O)NC3COc4ccc(Cl)cc4C3)N2C(=O)[C@@H](NC(=O)c2cc3cc(C(F)(F)P(=O)(O)O)ccc3s2)C1 (stereo partly drawn) [Compound 127, ((2-(((5S,8S,10aR)-3-acetyl-8-((6-chlorochroman-3-yl)carbamoyl)-6-oxodecahydropyrrolo[1,2-a][1,5]diazocin-5-yl)carbamoyl)benzo[b]thiophen-5-yl)difluoromethyl)phosphonic acid]
